Experimental data reported in patent US10294202B2, “Pyrrolidinones as herbicides” (FMC Corporation, priority 2013, dated 2019).

Experiments:
barnyardgrass = assay: Test A pre-/postemergence herbicide test; assay type: in vivo, Echinochloa crus-galli
Summary of the method: (§1)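 Approximately 10 days after treatment in the greenhouse, plants were compared with untreated controls and given a 0–100 visual injury rating. Applications: preemergence directed soil spray; postemergence on 2–10 cm plants at the one- to two-leaf stage.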

pigweed = assay: Test A pre-/postemergence herbicide test; assay type: in vivo, Amaranthus retroflexus
Summary of the method: as §1

corn [1] = assay: Test A pre-/postemergence herbicide test; assay type: in vivo, Zea mays
Summary of the method: as §1

ducksalad = assay: Test B flooded paddy test; assay type: in vivo, Heteranthera limosa; details: Flood, scale of 0 to 100 where 0 is no effect and 100 is complete control
Summary of the method: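 Visual ratings from 0, meaning no effect, up to 100, meaning complete control, were made by comparison with untreated controls 13 to 15 days after treatment. Test compounds went straight into floodwater standing 3 cm over the soil of pots holding 2-leaf seedlings.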

blackgrass = assay: Test C pre-/postemergence herbicide test; assay type: in vivo, Alopecurus myosuroides
Summary of the method: (§2)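 Plants grown and held in a greenhouse for 13 to 15 days post-spray, then rated 0–100 by visual comparison with controls. Pre treatments targeted seeds in loam and sand; post treatments targeted 1- to 4-leaf plants in peat-based potting medium.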

corn [2] = assay: Test C pre-/postemergence herbicide test; assay type: in vivo, Zea mays
Summary of the method: as §2

lambsquarters = assay: Test C pre-/postemergence herbicide test; assay type: in vivo, Chenopodium album
Summary of the method: as §2

morningglory = assay: Test C pre-/postemergence herbicide test; assay type: in vivo, Ipomoea coccinea
Summary of the method: as §2

nutsedge, yellow = assay: Test C pre-/postemergence herbicide test; assay type: in vivo, Cyperus esculentus
Summary of the method: as §2

soybean = assay: Test C pre-/postemergence herbicide test; assay type: in vivo, Glycine max
Summary of the method: as §2

oilseed rape = assay: Test C pre-/postemergence herbicide test; assay type: in vivo, Brassica napus
Summary of the method: as §2

[3] = Postemergence, 1000 g ai/ha, 0 to 100 scale (0 no effect, 100 complete control)
[4] = Preemergence, 31 g ai/ha, scale 0 to 100, 0 is no effect and 100 is complete control
[5] = Preemergence, 62 g ai/ha, scale 0 to 100 (0 no effect, 100 complete control)
[6] = Preemergence, 125 g ai/ha, scale 0 to 100 (0 no effect, 100 complete control)
[7] = Postemergence, 125 g ai/ha, 0 to 100 scale, 0 no effect, 100 complete control
[8] = Postemergence, 500 g ai/ha, 0 to 100 scale (0 no effect, 100 complete control)
[9] = Preemergence, 125 g ai/ha, visual rating on 0 to 100 scale (0 no effect, 100 complete control)
[10] = preemergence, 500 g ai/ha, 0 to 100 scale
[11] = Postemergence, 31 g ai/ha, scale 0 (no effect) to 100 (complete control)
[12] = Postemergence, 62 g ai/ha, scale 0 to 100 (0 no effect, 100 complete control)
[13] = Postemergence, 125 g ai/ha, scale 0 to 100 (0 no effect, 100 complete control)
[14] = Postemergence, 250 g ai/ha, scale 0 to 100 (0 no effect, 100 complete control)
[15] = Preemergence, 62 g ai/ha, scale 0 to 100

O=C(Nc1ccccc1F)C1C(=S)NCC1c1cccc(C(F)(F)F)c1 (centres unmarked) [Compound 274]
Plant response rating, Barnyardgrass (barnyardgrass; [3]): 90 | Plant response rating, Barnyardgrass (barnyardgrass; preemergence, 1000 g ai/ha, 0 to 100 scale (0 no effect, 100 complete control)): 90 | Plant response rating, Pigweed (pigweed; Postemergence, 125 g ai/ha, visual rating on 0 to 100 scale (0 no effect, 100 complete control), approx. 10 days): 0 | Plant response rating, Pigweed (pigweed; [3]): 20 | Plant response rating, Pigweed (pigweed; preemergence, 1000 g ai/ha, 0 to 100 scale): 0 | Plant response rating, Corn (corn [1]; [3]): 70 | Plant response rating, Ducksalad (ducksalad; 500 g ai/ha): 35 | Blackgrass plant response rating (blackgrass; [4]): 0 | Blackgrass plant response rating (blackgrass; [5]): 70 | Plant response rating, Blackgrass (blackgrass; [6]): 75 | Plant response rating (scale of 0 to 100), Blackgrass (blackgrass; Preemergence, 250 g ai/ha): 90 | Corn plant response rating (corn [2]; [4]): 0 | Corn plant response rating (corn [2]; [5]): 5 | Plant response rating, Corn (corn [2]; [6]): 10 | Plant response rating (scale of 0 to 100), Corn (corn [2]; Preemergence, 250 g ai/ha): 45 | Lambsquarters plant response rating (lambsquarters; [5]): 0 | Plant response rating (scale of 0 to 100), Lambsquarters (lambsquarters; Preemergence, 250 g ai/ha): 0 | Morningglory plant response rating (morningglory; [4]): 0 | Morningglory plant response rating (morningglory; [5]): 0 | Plant response rating, Morningglory (morningglory; [6]): 0 | Plant response rating (scale of 0 to 100), Morningglory (morningglory; Preemergence, 250 g ai/ha): 0 | Nutsedge, Yellow plant response rating (nutsedge, yellow; [4]): 0 | Nutsedge, Yellow plant response rating (nutsedge, yellow; [5]): 0 | Plant response rating, Nutsedge, Yellow (nutsedge, yellow; [6]): 0 | Plant response rating (scale of 0 to 100), Nutsedge, Yellow (nutsedge, yellow; Preemergence, 250 g ai/ha): 0 | Soybean plant response rating (soybean; [4]): 0 | Soybean plant response rating (soybean; [5]): 0 | Plant response rating, Soybean (soybean; [6]): 5 | Plant response rating (scale of 0 to 100), Soybean (soybean; Preemergence, 250 g ai/ha): 0 | Oilseed Rape plant response rating (oilseed rape; [4]): 0 | Oilseed Rape plant response rating (oilseed rape; [5]): 0 | Plant response rating, Oilseed Rape (oilseed rape; [6]): 5 | Plant response rating (scale of 0 to 100), Oilseed Rape (oilseed rape; Preemergence, 250 g ai/ha): 30

O=C1NCC(c2ccc(F)c(C(F)(F)F)c2)C1C(=O)Nc1ccccc1F (racemic) [Compound 76]
Plant response rating, Barnyardgrass (barnyardgrass; [7]): 80 | Plant response rating, Barnyardgrass (barnyardgrass; [8]): 90 | Barnyardgrass plant response rating (barnyardgrass; [9]): 80 | Plant response rating, Barnyardgrass (barnyardgrass; preemergence, 500 g ai/ha, 0 to 100 scale (0 no effect, 100 complete control)): 80 | Plant response rating, Pigweed (pigweed; [7]): 50 | Plant response rating, Pigweed (pigweed; [8]): 60 | Pigweed plant response rating (pigweed; [9]): 0 | Plant response rating, Pigweed (pigweed; [10]): 50 | Plant response rating, Corn (corn [1]; [7]): 40 | Plant response rating, Corn (corn [1]; [8]): 70 | Corn plant response rating (corn [1]; [9]): 0 | Plant response rating, Corn (corn [1]; [10]): 40 | Plant response rating, Ducksalad (ducksalad; 250 g ai/ha): 90 | Plant response rating, Blackgrass (blackgrass; [11]): 0 | Plant response rating, Blackgrass (blackgrass; [12]): 0 | Plant response rating, Blackgrass (blackgrass; [13]): 0 | Plant response rating, Blackgrass (blackgrass; [14]): 10 | Blackgrass plant response rating (blackgrass; [4]): 50 | Plant response rating, Blackgrass (blackgrass; [15]): 50 | Plant response rating, Blackgrass (blackgrass; [6]): 80 | Plant response rating (scale of 0 to 100), Blackgrass (blackgrass; Preemergence, 250 g ai/ha): 80 | Plant response rating, Corn (corn [2]; [11]): 0 | Plant response rating, Corn (corn [2]; [12]): 0 | Plant response rating, Corn (corn [2]; [13]): 0 | Plant response rating, Corn (corn [2]; [14]): 0 | Corn plant response rating (corn [2]; [4]): 0 | Plant response rating, Corn (corn [2]; [15]): 10 | Plant response rating, Corn (corn [2]; [6]): 40 | Plant response rating (scale of 0 to 100), Corn (corn [2]; Preemergence, 250 g ai/ha): 65 | Plant response rating, Lambsquarters (lambsquarters; [11]): 40 | Plant response rating, Lambsquarters (lambsquarters; [12]): 40 | Plant response rating, Lambsquarters (lambsquarters; [13]): 40 | Plant response rating, Lambsquarters (lambsquarters; [14]): 50 | Plant response rating, Lambsquarters (lambsquarters; [15]): 0 | Plant response rating, Lambsquarters (lambsquarters; [6]): 0 | Plant response rating (scale of 0 to 100), Lambsquarters (lambsquarters; Preemergence, 250 g ai/ha): 35 | Plant response rating, Morningglory (morningglory; [11]): 10 | Plant response rating, Morningglory (morningglory; [12]): 10 | Plant response rating, Morningglory (morningglory; [13]): 40 | Plant response rating, Morningglory (morningglory; [14]): 40 | Morningglory plant response rating (morningglory; [4]): 0 | Plant response rating, Morningglory (morningglory; [15]): 0 | Plant response rating, Morningglory (morningglory; [6]): 40 | Plant response rating (scale of 0 to 100), Morningglory (morningglory; Preemergence, 250 g ai/ha): 40 | Plant response rating, Nutsedge, Yellow (nutsedge, yellow; [11]): 0 | Plant response rating, Nutsedge, Yellow (nutsedge, yellow; [12]): 0 | Plant response rating, Nutsedge, Yellow (nutsedge, yellow; [13]): 0 | Plant response rating, Nutsedge, Yellow (nutsedge, yellow; [14]): 0 | Nutsedge, Yellow plant response rating (nutsedge, yellow; [4]): 0 | Plant response rating, Nutsedge, Yellow (nutsedge, yellow; [15]): 0 | Plant response rating, Nutsedge, Yellow (nutsedge, yellow; [6]): 20 | Plant response rating (scale of 0 to 100), Nutsedge, Yellow (nutsedge, yellow; Preemergence, 250 g ai/ha): 55 | Plant response rating, Soybean (soybean; [11]): 0 | Plant response rating, Soybean (soybean; [12]): 0 | Plant response rating, Soybean (soybean; [13]): 5 | Plant response rating, Soybean (soybean; [14]): 10 | Soybean plant response rating (soybean; [4]): 0 | Plant response rating, Soybean (soybean; [15]): 0 | Plant response rating, Soybean (soybean; [6]): 0 | Plant response rating (scale of 0 to 100), Soybean (soybean; Preemergence, 250 g ai/ha): 0 | Plant response rating, Oilseed Rape (oilseed rape; [11]): 0 | Plant response rating, Oilseed Rape (oilseed rape; [12]): 0 | Plant response rating, Oilseed Rape (oilseed rape; [13]): 0 | Plant response rating, Oilseed Rape (oilseed rape; [14]): 10 | Oilseed Rape plant response rating (oilseed rape; [4]): 0 | Plant response rating, Oilseed Rape (oilseed rape; [15]): 0 | Plant response rating, Oilseed Rape (oilseed rape; [6]): 30 | Plant response rating (scale of 0 to 100), Oilseed Rape (oilseed rape; Preemergence, 250 g ai/ha): 75
